Measurements published in ChEMBL document CHEMBL5316354, “From Natural Sources to Synthetic Derivatives: The Allyl Motif as a Powerful Tool for Fragment-Based Design in Cancer Treatment” (J Med Chem, 2023).
pEC50, pIC50: −log10 of the molar value.

Key:
[1] = system: MCF7; assay: Antitumor activity against human MCF7 cells assessed as cell growth inhibition; format: functional, cell-based
[2] = system: SK-BR-3; assay: Antitumor activity against human SK-BR-3 cells assessed as cell growth inhibition; format: functional, cell-based
[3] = system: DU-145; assay: Antitumor activity against human DU-145 cells assessed as cell growth inhibition; format: functional, cell-based
[4] = system: MCF7; assay: Antitumor activity against human MCF7 expressing HER-2 cells assessed as cell growth inhibition; format: functional, cell-based
[5] = system: BGC-823; assay: Antitumor activity against human BGC-823 cells assessed as cell growth inhibition; format: functional, cell-based
[6] = system: SGC-7901; assay: Antitumor activity against human SGC-7901 cells assessed as cell growth inhibition; format: functional, cell-based
[7] = system: MCF7; assay: Antitumor activity against human MCF7 cells assessed as inhibition of cell proliferation in the presence of 1mM of eugenol; format: functional, cell-based
[8] = system: MDA-MB-231; assay: Antitumor activity against human MDA-MB-231 cells assessed as cell viability at 0.5 uM relative to control; format: functional; settings: read-out: Activity
[9] = system: MCF7; assay: Antitumor activity against human MCF7 cells assessed as inhibition of cell proliferation; format: functional, cell-based
[10] = system: MCF7; assay: Antitumor activity against human MCF7 cells assessed as decrease in cell viability; format: functional, cell-based
[11] = system: MCF7; assay: Antitumor activity against human MCF7 cells assessed as cell growth inhibition incubated for 48 hrs; format: functional, cell-based; settings: MCF7, 48 h
[12] = system: SW480; assay: Antitumor activity against human SW480 cells assessed as inhibition of cell growth incubated for 24 to 48 hrs; format: functional, cell-based
[13] = Antitumor activity against human Osteosarcoma cells assessed as increase in intracellular calcium concentration; format: functional, cell-based; settings: Osteosarcoma cell
[14] = Antitumor activity against human OC2 cells assessed as increase in cell proliferation at 10 uM relative to control; format: functional
[15] = system: HL-60; assay: Antitumor activity against human HL-60 cells assessed as cell growth inhibition; format: functional, cell-based
[16] = system: NCI-H226; assay: Antitumor activity against human NCI-H226 cells assessed as cell growth inhibition; format: functional, cell-based
[17] = system: Rattus norvegicus; assay: Immunomodulatory activity in testosterone propionate induced benign prostatic hyperplasia Wistar rat model assessed as reduction in serum testosterone level at 5 mg/kg, po relative to control; format: functional
[18] = system: Rattus norvegicus; assay: Immunomodulatory activity in testosterone propionate induced benign prostatic hyperplasia Wistar rat model assessed as reduction in prostate weight at 5 mg/kg, po relative to control; format: functional
[19] = system: Rattus norvegicus; assay: Immunomodulatory activity in testosterone propionate induced benign prostatic hyperplasia Wistar rat model assessed as reduction in DHT level at 5 mg/kg, po relative to control; format: functional
[20] = system: NCI-H23; assay: Antitumor activity against human NCI-H23 cells assessed as cell growth inhibition; format: functional, cell-based
[21] = system: PC-3; assay: Antitumor activity against human PC-3 cells assessed as cell growth inhibition; format: functional, cell-based
[22] = system: SW-620; assay: Antitumor activity against human SW620 cells assessed as cell growth inhibition; format: functional, cell-based
[23] = system: HeLa; assay: Antitumor activity against human HeLa cells assessed as cell growth inhibition; format: functional, cell-based
[24] = system: BGC-823; assay: Antitumor activity against human BGC-823 cells xenografted in BALB/c nude mouse assessed as tumor growth inhibition at 30 mg/kg, ip administered for 32 days relative to control; format: functional; settings: BGC-823, 768 h, time 32 day
[25] = system: BGC-823; assay: Antitumor activity against human BGC-823 cells xenografted in BALB/c nude mouse assessed as tumor growth inhibition at 20 mg/kg, ip administered for 32 days relative to control; format: functional; settings: BGC-823, 768 h, time 32 day
[26] = system: BGC-823; assay: Antitumor activity against human BGC-823 cells xenografted in BALB/c nude mouse assessed as tumor growth inhibition at 40 mg/kg, ip administered for 32 days relative to control; format: functional; settings: BGC-823, 768 h, time 32 day
[27] = system: Ca9-22; assay: Antitumor activity against human Ca9-22 cells assessed as cellular proliferation at 30 uM; format: functional
[28] = system: MG-63; assay: Antiproliferative activity against human MG-63 cells assessed as growth inhibition by MTT assay; format: functional
[29] = system: Ca9-22; assay: Antitumor activity against human Ca9-22 cells assessed as cellular proliferation at 3 uM; format: functional
[30] = system: MDA-MB-231; assay: Antitumor activity against human MDA-MB-231 cells assessed as cell viability at 50 uM relative to control; format: functional; settings: read-out: Activity
[31] = system: HepG2; assay: Antitumor activity against human HepG2 cells assessed as reduction in cell growth; format: functional, cell-based
[32] = system: HepG2; assay: Cytotoxicity against human HepG2 cells; format: functional
[33] = system: SK-BR-3; assay: Antitumor activity against human SK-BR-3 cells assessed as inhibition of cell proliferation at 60 uM relative to control; format: functional
[34] = system: MDA-MB-231; assay: Antitumor activity against human MDA-MB-231 cells assessed as inhibition of cell proliferation at 60 uM relative to control; format: functional
[35] = system: SK-BR-3; assay: Antitumor activity against human SK-BR-3 cells assessed as inhibition of cell proliferation at 40 uM relative to control; format: functional
[36] = system: MDA-MB-231; assay: Antitumor activity against human MDA-MB-231 cells assessed as inhibition of cell proliferation at 40 uM relative to control; format: functional
[37] = system: Rattus norvegicus; assay: Immunomodulatory activity in testosterone propionate induced benign prostatic hyperplasia Wistar rat model assessed as reduction in prostate weight at 50 mg/kg, po relative to control; format: functional
[38] = system: Rattus norvegicus; assay: Immunomodulatory activity in testosterone propionate induced benign prostatic hyperplasia Wistar rat model assessed as reduction in serum testosterone level at 50 mg/kg, po relative to control; format: functional
[39] = system: Rattus norvegicus; assay: Immunomodulatory activity in testosterone propionate induced benign prostatic hyperplasia Wistar rat model assessed as reduction in DHT level at 50 mg/kg, po relative to control; format: functional

In the case of `COC1=C2C[C@@H](C)C[C@H](OC)[C@H](O)[C@@H](C)/C=C(\C)[C@H](OC(N)=O)[C@@H](OC)/C=C\C=C(/C)C(=O)NC(=CC1=O)C2=O` [GELDANAMYCIN], the pIC50 [1] was 7.96 and the pIC50 [2] was 8.40.

In the case of `Cn1[se]c2ccccc2c1=O`, the pIC50 [1] was 4.49 and the pIC50 [3] was 4.52.

In the case of `C=CCNC(=S)NC(=O)c1ccccc1`, the pIC50 [1] was 5.82 and the pIC50 [4] was 6.22.

For `C=CCc1cc(/C=C2\CN(Cc3ccccc3)C/C(=C\c3ccc(O)c(CC=C)c3)C2=O)ccc1O`, the pIC50 [5] was 5.16 and the pIC50 [6] was 5.22.

With `C=CCNC1=C2C[C@@H](C)C[C@H](OC)[C@H](O)[C@@H](C)/C=C(\C)[C@H](OC(N)=O)[C@@H](OC)/C=C\C=C(/C)C(=O)NC(=CC1=O)C2=O` [TANESPIMYCIN] the pIC50 [1] was 8.30 and the pIC50 [2] was 8.40.

With `COc1cccc2c1C(=O)c1c(O)c3c(c(O)c1C2=O)C[C@@](O)(C(=O)CO)C[C@@H]3O[C@H]1C[C@H](N)[C@H](O)[C@H](C)O1` [DOXORUBICIN] the pIC50 [7] was 7.06, the pIC50 [5] was 4.42 and the pIC50 [6] was 4.43. The viability at 0.5 µM [8] was 40% and the pIC50 [9] was 6.30.

Molecule `C=CCSCC(N)C(=O)OOc1ccc(CNC(=O)CCCCCCCC)cc1OC` (stereo not drawn) has a pIC50 [10] of 4.18.

Work on `CCCCn1[se]c2ccccc2c1=O` yielded a pIC50 [1] of 4.86 and a pIC50 [3] of 4.55.

`CC(C)CCn1[se]c2ccccc2c1=O` showed a pIC50 [1] of 4.54.

In the case of `C/C=C/c1ccc(O)c(OC)c1`, the pIC50 [11] was 4.94.

`O=c1c2ccccc2[se]n1C1CCCCC1` showed a pIC50 [1] of 5.14 and a pIC50 [3] of 5.24.

For `C=CCSC[C@H](NC(=O)C(C)c1ccc2cc(OC)ccc2c1)C(=O)OCC` (stereo partly drawn), the pIC50 [12] was 4.51.

`C=CCc1ccc2c(c1)OCO2` [SAFROLE] showed a pEC50 [13] of 3.35 and an Activity [14] of 50%.

In the case of `C=CCc1cccc(/C=N/NC(=O)CN2CCN(Cc3ccccc3)CC2)c1O` [PAC-1], the pIC50 [1] was < 4.12, the pIC50 [15] was 6.04 and the pIC50 [16] was 6.46.

For `CC(C)(C)NC(=O)[C@H]1CC[C@H]2[C@@H]3CC[C@H]4NC(=O)C=C[C@]4(C)[C@H]3CC[C@]12C` [FINASTERIDE], the inhibition in vivo at 5 mg/kg [17] was 55%, the inhibition in vivo at 5 mg/kg [18] was 53% and the inhibition in vivo at 5 mg/kg [19] was 52%.

For `C=CCc1cccc(/C=N/NC(=O)Cn2cnc3ccc([N+](=O)[O-])cc3c2=O)c1O`, the pIC50 [20] was 7.52, the pIC50 [21] was 7.15 and the pIC50 [22] was 7.15.

In the case of `CCCCCCCCC(=O)NCc1ccc(O)c(OC)c1` [NONIVAMIDE], the pIC50 [10] was 2.65.

`CCC[C@@H](Cc1c[nH]c2ccccc12)NS(=O)(=O)c1c(C(C)C)cc(C(C)C)cc1C(C)C` gave a pIC50 [23] of 4.51.

In the case of `C=CCOc1cccc2c1C(=O)C=C(C)C2=O`, the pIC50 [21] was 4.49.

`C=CCSC[C@H](NC(=O)Cc1ccccc1Nc1c(Cl)cccc1Cl)C(=O)OCC` gave a pIC50 [12] of 4.51.

With `C=CCSSSCC=C` [ALLITRIDIN] the inhibition in vivo at 30 mg/kg [24] was 50%, the inhibition in vivo at 20 mg/kg [25] was 38% and the inhibition in vivo at 40 mg/kg [26] was 57%.

Work on `C/C=C/c1ccc(OC)cc1` [ANETHOLE] yielded an Activity [27] of 5.2%, a GI50 [28] of 60.2 µM and an Activity [29] of 42.7%. The viability at 50 µM [30] was 60%.

`C=C1[C@H](CO)[C@@H](O)C[C@@H]1n1cnc2c(=O)[nH]c(N)nc21` [ENTECAVIR ANHYDROUS] showed a pEC50 [31] of 8.43 and a CC50 [32] of 30 µM.

`C=CCc1cc(/C=C2\CC/C(=C\c3ccc(O)c(CC=C)c3)C2=O)ccc1O` gave a pIC50 [5] of 5.15 and a pIC50 [6] of 5.16.

For `C=CCc1ccc(O)c(OC)c1` [EUGENOL], the inhibition at 60 µM [33] was > 90%, the inhibition at 60 µM [34] was > 90% and the pIC50 [11] was < 2.82. The inhibition at 40 µM [35] was > 90% and the inhibition at 40 µM [36] was > 90%.

For `C=CCSC[C@H](NC(=O)c1ccccc1O)C(=O)OCC`, the pIC50 [12] was 4.51.

Molecule `C=CCSCC=C` [DIALLYL SULFIDE] has an inhibition in vivo at 50 mg/kg [37] of 60%, an inhibition in vivo at 50 mg/kg [38] of 68% and an inhibition in vivo at 50 mg/kg [39] of 75%.
